Source: article PMC6271041, “Synthesis and Biological Evaluation of Novel 2-Arylalkylthio-5-iodine-6-substituted-benzyl-pyrimidine-4(3H)-ones as Potent HIV-1 Non-Nucleoside Reverse Transcriptase Inhibitors” (Molecules, 2014)

What was measured:
HIV-1 RT = biological target: T1, HIV-1 RT (Human immunodeficiency virus type 1 group M subtype B, UniProt P04585); assay: Inhibitory activity against HIV-1 RT (biotin-dUTP incorporation, colorimetric); assay type: biochemical; settings: for IC50: mean of three separate experiments, variation less than 15%
T1 construct: The biotin-dUTP was incorporated by reverse transcriptase (Sigma, St. Louis, MO, USA); purchased Sigma
Method: Oligo(dT) (TaKaRa Co., Otsu, Japan) was immobilized via its 5'-terminal phosphate to Covalink-NH microtiter plates (NUNC Co., Roskilde, Denmark). The biotin-dUTP was incorporated by reverse transcriptase (Sigma, St. Louis, MO, USA). Briefly, a serial concentration of inhibitor was added to the mixture, which contained 50 mmol/L Tris-HCl (pH 8.3), 3 mmol/L MgCl2, 75 mmol/L KCl, 5 mmol/L DTT, 0.13 mg/mL BSA, 10 μg/mL poly (A), 0.75 μM biotin-11-Dutp, 1.5 μM dTTP and HIV-1 RT. After incubation at 37 °C for 1h, washing buffer, which contained 50 mmol/L Tris-HCl (pH 7.5), 0.15 mol/L NaCl, 0.05 mmol/L MgCl2 and 0.02% Tween20, was used to wash the plate. Then each well of the plate was added […] 1% BSA and incubated at room temperature for another 30 min. The plate was washed with the same buffer for 3 times. Before further incubation at 37 °C for 1 h, 50 μL of alkaline phosphatase streptavidin (SA-ALP) solution (100 ng/mL) was added to each well and washed again as above. Finally, 50 μL of p-nitrophenyl phosphate, disodium (PNPP, 1 mg/mL, pH 9.5) was added and incubated at 37 °C for 30 min. 0.5 mol/L NaOH was added to stop the reaction and a colorimetric streptavidin-alkaline phosphatase reporter system was used to detect and quantify the result.

| SMILES | melting point [°C] | IC50 (HIV-1 RT) [µM] | fold more active compared to nevirapine (HIV-1 RT IC50) (HIV-1 RT) |
| --- | --- | --- | --- |
| Cc1cc(C)cc(Cc2cc(=O)[nH]c(SCCCOc3ccccc3)n2)c1 [7t, 2-(Phenoxypropylthio)-6-(3,5-dimethylbenzyl)uracil] | 100 to 102 | 2.64 |  |
| COC(=O)c1ccc(CSc2nc(Cc3ccccc3)c(I)c(=O)[nH]2)cc1 [8j, 2-(4-Methoxycarbonylbenzylthio)-5-iodine-6-benzyluracil] | 214 to 216 | 3.64 |  |
| COC(=O)c1ccc(CSc2nc(Cc3cc(F)cc(F)c3)cc(=O)[nH]2)cc1 [7l, 2-(4-Methoxycarbonylbenzylthio)-6-(3,5-difluorobenzyl)uracil] | 279 to 280 | > 100 |  |
| COC(=O)c1ccc(CSc2nc(Cc3cc(C)cc(C)c3)c(I)c(=O)[nH]2)cc1 [8k, 2-(4-Methoxycarbonylbenzylthio)-5-iodine-6-(3,5-dimethylbenzyl)uracil] | 208 to 211 | 1.11 |  |
| CC(=O)c1ccc(CSc2nc(Cc3ccccc3)cc(=O)[nH]2)cc1 [7g, 2-(4-Acetylbenzylthio)-6-benzyluracil] | 204 to 205 | 55 |  |
| O=c1[nH]c(SCCCOc2ccccc2)nc(Cc2ccccc2)c1I [8s, 2-(Phenoxypropylthio)-5-iodine-6-benzyluracil] | 135 to 137 | 5.88 |  |
| O=c1cc(Cc2ccccc2)nc(SCc2ccc([N+](=O)[O-])cc2)[nH]1 [7a, 2-(4-Nitrobenzylthio)-6-benzyluracil] | 192 to 194 | > 100 |  |
| O=c1cc(Cc2cc(F)cc(F)c2)nc(SCCc2ccc([N+](=O)[O-])cc2)[nH]1 [7o, 2-(4-Nitrophenethylthio)-6-(3,5-difluorobenzyl)uracil] | 220 to 222 | 18.1 |  |
| Cc1cc(C)cc(Cc2nc(SCc3ccc([N+](=O)[O-])cc3)[nH]c(=O)c2I)c1 [8b, 2-(4-Nitrobenzylthio)-5-iodine-6-(3,5-dimethylbenzyl)uracil] | 224 to 228 | 1.66 |  |
| COC(=O)c1ccc(CSc2nc(Cc3cc(F)cc(F)c3)c(I)c(=O)[nH]2)cc1 [8l, 2-(4-Methoxycarbonylbenzylthio)-5-iodine-6-(3,5-difluorobenzyl)uracil] | 210 to 213 | 0.71 | about 10 fold |
| O=c1cc(Cc2ccccc2)nc(SCCCOc2ccccc2)[nH]1 [7s, 2-(Phenoxypropylthio)-6-benzyluracil] | 89 to 91 | 16.7 |  |
| O=c1[nH]c(SCCc2ccc([N+](=O)[O-])cc2)nc(Cc2ccccc2)c1I [8m, 2-(4-Nitrophenethylthio)-5-iodine-6-benzyluracil] | 209 to 212 | 8.64 |  |
| COC(=O)c1ccc(CSc2nc(Cc3ccccc3)cc(=O)[nH]2)cc1 [7j, 2-(4-Methoxycarbonylbenzylthio)-6-benzyluracil] | 214 to 217 | > 100 |  |
| O=c1[nH]c(SCCc2ccc([N+](=O)[O-])cc2)nc(Cc2cc(F)cc(F)c2)c1I [8o, 2-(4-Nitrophenethylthio)-5-iodine-6-(3,5-difluorobenzyl)uracil] | 220 to 221 | 6.88 |  |
| CC(=O)c1ccc(CSc2nc(Cc3ccccc3)c(I)c(=O)[nH]2)cc1 [8g, 2-(4-Acetylbenzylthio)-5-iodine-6-benzyluracil] | 219 to 220 | 13.8 |  |
| O=c1[nH]c(SCCCOc2ccccc2)nc(Cc2cc(F)cc(F)c2)c1I [8u, 2-(Phenoxypropylthio)-5-iodine-6-(3,5-difluorobenzyl)uracil] | 156 to 158 | 18 |  |
| Cc1cc(C)cc(Cc2nc(SCOCc3ccccc3)[nH]c(=O)c2I)c1 [8w, 2-(Benzyloxymethylthio)-5-iodine-6-(3,5-dimethylbenzyl)uracil] | 200 to 202 | 8.75 |  |

| SMILES | melting point [°C] | IC50 (HIV-1 RT) [µM] | fold more active compared to nevirapine (HIV-1 RT IC50) (HIV-1 RT) |
| --- | --- | --- | --- |
| O=c1cc(Cc2ccccc2)nc(SCOCc2ccccc2)[nH]1 [7v, 2-(Benzyloxymethylthio)-6-benzyluracil] | 118 to 120 | 12.9 |  |
| N#Cc1ccc(CSc2nc(Cc3ccccc3)cc(=O)[nH]2)cc1 [7d, 2-(4-Cyanobenzylthio)-6-benzyluracil] | 190 to 193 | > 100 |  |
| CC(=O)c1ccc(CSc2nc(Cc3cc(F)cc(F)c3)c(I)c(=O)[nH]2)cc1 [8i, 2-(4-Acetylbenzylthio)-5-iodine-6-(3,5-difluorobenzyl)uracil] | 205 to 206 | 4.03 |  |
| N#Cc1ccc(CSc2nc(Cc3cc(F)cc(F)c3)cc(=O)[nH]2)cc1 [7f, 2-(4-Cyanobenzylthio)-6-(3,5-difluorobenzyl)uracil] | 205 to 208 | 15.8 |  |
| COC(=O)c1ccc(CSc2nc(Cc3cc(C)cc(C)c3)cc(=O)[nH]2)cc1 [7k, 2-(4-Methoxycarbonylbenzylthio)-6-(3,5-dimethylbenzyl)uracil] | 221 to 224 | 7.5 |  |
| O=c1[nH]c(SCCOc2ccc([N+](=O)[O-])cc2)nc(Cc2ccccc2)c1I [8p] | 204 to 205 | 6.28 |  |
| Cc1cc(C)cc(Cc2cc(=O)[nH]c(SCc3ccc([N+](=O)[O-])cc3)n2)c1 [7b, 2-(4-Nitrobenzylthio)-6-(3,5-dimethylbenzyl)uracil] | 218 to 220 | 3.32 |  |
| CC(=O)c1ccc(CSc2nc(Cc3cc(C)cc(C)c3)cc(=O)[nH]2)cc1 [7h, 2-(4-Acetylbenzylthio)-6-(3,5-dimethylbenzyl)uracil] | 195 to 197 | 17 |  |
| N#Cc1ccc(CSc2nc(Cc3ccccc3)c(I)c(=O)[nH]2)cc1 [8d, 2-(4-Cyanobenzylthio)-5-iodine-6-benzyluracil] | 223 to 226 | 10.6 |  |
| O=c1[nH]c(SCc2ccc([N+](=O)[O-])cc2)nc(Cc2cc(F)cc(F)c2)c1I [8c, 2-(4-Nitrobenzylthio)-5-iodine-6-(3,5-difluorobenzyl)uracil] | 203 to 206 | 5.5 |  |
| O=c1[nH]c(SCOCc2ccccc2)nc(Cc2ccccc2)c1I [8v, 2-(Benzyloxymethylthio)-5-iodine-6-benzyluracil] | 133 to 135 | 10.2 |  |
| O=c1cc(Cc2cc(F)cc(F)c2)nc(SCCOc2ccc([N+](=O)[O-])cc2)[nH]1 [7r, 2-(2-(4-Nitrophenoxy)ethylthio)-6-(3,5-difluorobenzyl)uracil] | 210 to 212 | 1.31 |  |
| N#Cc1ccc(CSc2nc(Cc3cc(F)cc(F)c3)c(I)c(=O)[nH]2)cc1 [8f, 2-(4-Cyanobenzylthio)-5-iodine-6-(3,5-difluorobenzyl)uracil] | 216 to 219 | 4.49 |  |
| Cc1cc(C)cc(Cc2nc(SCc3ccc(C#N)cc3)[nH]c(=O)c2I)c1 [8e, 2-(4-Cyanobenzylthio)-5-iodine-6-(3,5-dimethylbenzyl)uracil] | 224 to 227 | 4.03 |  |
| O=c1cc(Cc2cc(F)cc(F)c2)nc(SCc2ccc([N+](=O)[O-])cc2)[nH]1 [7c, 2-(4-Nitrobenzylthio)-6-(3,5-difluorobenzyl)uracil] |  | > 100 |  |
| CC(C)c1c(Cc2ccccc2)n(COCc2ccccc2)c(=O)[nH]c1=O [TNK-651, reference compound] |  | 0.14 |  |
